{
  "source": "patent US20120077843A1",
  "about": "“MALIGNANT PRECURSOR CELLS FROM DUCTAL CARCINOMA IN SITU LESIONS” (George Mason Intellectual Properties, Inc., priority 2009, published 2012)",
  "key": {"[1]": {"tested_on": "DCIS organoid cell cultures", "assay": "Histomorphology (H&E of FFPE sections) of chloroquine treated DCIS organoids", "type": "cell-based, human", "conditions": "for histology of intraductal epithelial cells / remaining adherent cells: chloroquine phosphate 50 μM, FIG. 14D", "method": "(§1) Pharmacological inhibition of autophagy. […] CO-containing medium was replaced three times per week for a period of 6 months.\nImmunohistochemistry. Formalin fixed murine tissue or DCIS organoids were processed and paraffin embedded by commercial laboratories (AML Laboratories, Inc, Rosedale, Md. or Bi-Biomics, Nampa, Id.). Formalin fixed paraffin embedded (FFPE) tissue sections (5 μm or 1 μm thickness) mounted on positively charged glass slides were baked at 56° C. for 20 min., deparaffinized in xylene and rehydrated in a series of graded alcohols (100%, 95%, and 70%) with a final rinse in wash buffer (Dako, Carpinteria, Calif., USA). Antigen retrieval, when necessary, was performed with proteinase K or heat induced epitope retrieval. Immunostaining was performed on a Dako Autostainer with an Envision+HRP staining kit (Dako) per manufacturer's instructions. Stained tissue sections were counterstained with Hematoxylin (Dako), rinsed in distilled water and developed in Scott's Tap Water Substitute solution. Cover slips were applied using aqueous mounting medium (Faramount; Dako). Images were captured with an Olympus BX51 microscope using 4×, 10×, 20×, or 100× objectives."}, "[2]": {"tested_on": "DCIS malignant precursor cells", "assay": "Ex vivo invasion of autologous breast stroma in organoid culture", "type": "cell-based, human", "conditions": "chloroquine phosphate treated organ culture", "method": "(§2) Organoid ex vivo culture. Dissected breast ductal tissue was grown in 115 cm^2 TPP reclosable flasks (MidSci) or 10 cm^2 culture tubes (MidSci) in serum free DMEM/F12 medium supplemented with human recombinant EGF (10 ng/mL), insulin (10 μg/mL), streptomycin sulfate (100 μg/mL) and gentamicin sulfate (20 μg/mL), with or without 0.36% (v/v) murine Engelbreth-Holm-Swarm (EHS) derived, growth factor reduced, basement membrane extract (Trevigen, Gaithersburg, Md., USA) at 37° C. in a humidified 5.0% CO2 atmosphere. Medium was replaced three times per week. Cultures were maintained continuously for up to one year. Periodically, organoids were removed, under microscopic visualization, for propagation into new culture flasks or phenotypic and molecular analysis.\nas §1"}, "[3]": {"tested_on": "human DCIS spheroids", "conditions": "for spheroid and 3-D structure formation (in words): DCIS organoid cultures, untreated up to 113 spheroids per duct organoid", "method": "Tissue collection. […] Gross tissue pathology at the time of procurement was assessed by a board certified pathologist. Tissue containing DCIS lesions was excised for further macrodissection and rinsed in sterile phosphate buffered saline to remove sentinel lymph node dye. Using sterile technique, ductal tissue was dissected from surrounding breast adipose/fibrous tissue. The ductal tissue was rinsed in serum free DMEM/F 12 medium (Invitrogen, Carlsbad, Calif., USA) supplemented with human recombinant EGF (10 ng/mL; Cell Signaling Technology, Danvers, Mass., USA or Millipore, Billerica, Mass., USA), insulin (10 μg/mL; Roche, Indianapolis, Ind., USA), streptomycin sulfate (100 μg/mL; Sigma, St. Louis, Mo., USA) and gentamicin sulfate (20 μg/mL; Sigma) prior to distribution in culture flasks (MidSci, St. Louis, Mo., USA). Ductal tissue was allowed to attach to the culture surface and observed daily for cellular outgrowths. Non-adherent organoids were removed from the culture flask.\nas §2, §1\n(§3) Statistics. The Student T-test, two tailed with Welch's correction, was used to calculate the p-value, and to determine the statistical difference of epithelial outgrowth area before and after CQ treatment. P values <0.05 were considered significant. Standard deviation (SO) or standard error of the mean (SEM) was calculated for group comparisons. Wilcoxon rank sum was used to determine the differences between CQ treated and untreated groups for the reverse phase protein arrays. A p=0.1 was considered different for small sample sizes."}, "[4]": {"tested_on": "autophagy associated signal pathway proteins in DCIS spheroids", "assay": "Cell signaling pathway mapping by reverse phase protein microarray (RPMA) of spheroids pre and post chloroquine", "type": "cell-based, human", "conditions": "for autophagy associated signal pathway proteins (Atg5, AKT, ERK, mTOR, IRS-1, p38 etc.) by RPMA: spheroids pre and post chloroquine phosphate 50 μM for 4 days, n=3", "method": "as §1, §3"}, "[5]": {"tested_on": "DCIS organoid culture spheroids", "assay": "Autophagosome lysosome imaging with LysoTracker Red", "type": "cell-based, human", "conditions": "chloroquine phosphate 50 μM for 2 weeks"}, "[6]": {"conditions": "listed as chloroquine phosphate"}},
  "note": "Where two headings read alike, the source gives them in different places.",
  "data": [
    {"molecule": "CCN(CC)CCCC(C)Nc1ccnc2cc(Cl)ccc12", "note": "(stereo not shown) [chloroquine, N′-(7-chloroquinolin-4-yl)-N,N-diethyl-pentane-1,4-diamine]", "values": [
      {"measurement": "histology of invading DCIS cells within the organoid", "setting": "[1]; 2 days post chloroquine treatment, 50 μM", "value": "Degeneration of the invading DCIS cells"},
      {"measurement": "histology of intraductal epithelial cells / remaining adherent cells", "setting": "[1]", "value": "Cellular swelling and apparent apoptotic death"},
      {"measurement": "histology of intraductal epithelial cells / remaining adherent cells", "setting": "[1]; listed as CQ", "value": "lysosomal engorgement"},
      {"measurement": "histology of DCIS organoid cultured with chloroquine long term", "setting": "[1]; cultured in the presence of chloroquine for 6 months, 50 μM", "value": "complete absence of cellular outgrowths"},
      {"measurement": "ex vivo invasion of autologous stroma", "setting": "[2]", "value": "suppressed ex vivo invasion"},
      {"measurement": "spheroid and 3-D structure formation (in words)", "setting": "[3]", "value": "zero for the majority of explants"},
      {"measurement": "spheroid and 3-D structure formation (in words)", "setting": "[3]; listed as CQ", "value": "virtually abolished"},
      {"measurement": "spheroid and 3-D structure formation (in words)", "setting": "[3]; [6]", "value": "completely suppressed"},
      {"measurement": "explants without any spheroids following chloroquine treatment", "setting": "[3]; case 09-148, 14 explants", "value": "12 out of 14"},
      {"measurement": "spheroids observed after treatment", "setting": "[3]; case 09-301, n=3, prior to treatment 20.5±7.8", "value": "no spheroids observed"},
      {"measurement": "inhibition of spheroid outgrowth, CQ in combination with tamoxifen", "setting": "[3]; cultured DCIS cells, combination with anti-estrogen compound (tamoxifen)", "value": "pronounced effect"},
      {"measurement": "apoptosis (elevation of cleaved PARP Asp214)", "setting": "[4]; as early as 48 hours post treatment", "value": "induced apoptosis"},
      {"measurement": "autophagy associated signal pathway proteins (Atg5, AKT, ERK, mTOR, IRS-1, p38 etc.) by RPMA", "setting": "[4]; listed as CQ", "value": "suppressed"},
      {"measurement": "autophagy associated signal pathway proteins (Atg5, AKT, ERK, mTOR, IRS-1, p38 etc.) by RPMA", "setting": "[4]; listed as Chloroquine", "value": "markedly inhibited"},
      {"measurement": "autophagy associated signal pathway proteins (Atg5, AKT, ERK, mTOR, IRS-1, p38 etc.) by RPMA", "setting": "[4]; [6]", "value": "suppressed autophagy associated proteins"},
      {"measurement": "spheroid integrity and LysoTracker Red distribution", "setting": "[5]", "value": "Dissociation of the spheroid, and diffuse accumulation of LysoTracker Red"}
    ]}
  ]
}
